Measurements taken from patent publication US20170281611A1, “QUINOLINES AND THEIR USE FOR TREATING ENDOPLASMIC RETICULUM STRESS-CAUSED DISEASES” (EIGER BIOPHARMACEUTICALS, INC., priority 2014, published 2017).

What was measured:
[1] = system: G6PAse, PEPCK, SCD1, DGAT2, FASn, SREBP1c, PPARα, PGC1α; assay: Liver expression of gluconeogenesis and lipogenesis genes (real-time PCR); type: in vivo, mouse; details: liver of ob/ob mice
Protocol: The expression of key genes involved in gluconeogenesis and lipogenesis was measured. RNA was isolated from liver samples of the ob/ob mice and mRNA expression of the indicated genes was quantified by Real-time PCR using iTaq Fast SYBR Green Supermix with ROX (Bio-Rad) in a 7500 Real-Time PCR systems (Applied Biosystems) using mouse specific primers. Gene expression is normalized to 18s. RNA was isolated using Trizol (Invitrogen). cDNA was generated using High Capacity cDNA Reverse Transcription kit (Applied Biosystems). Real-time PCR was performed with iTaq Fast SYBR Green Supermix with ROX (Bio-Rad) in 7500 Real-Time PCR systems (Applied Biosystems) using mouse specific primers. Gene expression was normalized to 18s. Isolated liver tissue was homogenized in RIPA buffer containing protease inhibitors and phosphatase inhibitors (Roche). Protein samples were matched for their protein concentrations and 30 micrograms of each sample were applied to SDS-PASE and transferred onto nitrocellulose membrane. Membranes were then incubated with the corresponding phosphor or total primary antibodies specific for the desired proteins followed by incubation with appropriate secondary antibodies conjugated to horseradish peroxidase (Pierce) and signal intensities were visualized by Chemiluminescence (Pierce). Films from at least four independent experiments were scanned and densities of the immunoreactive bands were evaluated using NIH Image software. GAPDH (Santa Cruz Biotechnology) was used as a loading control.

PERK, elF2α, CHOP = assay: Liver protein markers of ER stress (western blot); type: in vivo, mouse; details: liver of ob/ob mice, 50 mg/kg
Protocol: Proteins were analyzed by western blot and quantified. Bands were normalized to GAPDH and expressed as 100% of ob/ob+vehicle (ob). Liver tissues were homogenized with a bench-top homogenizer in an ice-cold tissue lysis buffer. The homogenized samples were centrifuged at 8,000×g for 20 min at 4° C. The lipid layer was removed and the supernatant was transferred into Eppendorf tubes. After centrifuging at 16,000×g for 60 min at 4° C., the supernatants were normalized to the same concentration and boiled at 100° C. in 1× Laemmli buffer for 5 min. The lysate was cooled to room temperature before loading for Western blot analysis. Protein lysate was resolved on SDS polyacrylamide gel and transferred onto PVDF membrane at a voltage of 100 V for 2 hrs at 4° C. The membrane was blocked in 10% blocking reagent and incubated overnight with a primary antibody in Tris-buffered saline solution/Tween (TBST)/10% blocking reagent at 4° C. After incubation, the membrane was washed three times in TBST for 20 min and incubated at room temperature with a secondary antibody in TBST/10% blocking reagent for 1 hr. The membrane was washed three times for 20 min and developed using a chemiluminescence assay system. To strip a membrane for another primary antibody, the membrane was agitated at 50° C. for 20 min in a box with stripping buffer (2% SDS and 100 mM 2-mercaptoethanol in TBS, pH 7.5). […]

[2] = biological target: human nerepinephrine (NET) transporter (Homo sapiens, UniProt P23975); assay: Selectivity panel of 164 targets: NET; details: 10 μM in duplicate; one of only 4 hits among 164 targets
Excerpt: The methods used here for each target were adapted from the scientific literature to maximize reliability and reproducibility.

Sequence of human nerepinephrine (NET) transporter (P23975 whole entry): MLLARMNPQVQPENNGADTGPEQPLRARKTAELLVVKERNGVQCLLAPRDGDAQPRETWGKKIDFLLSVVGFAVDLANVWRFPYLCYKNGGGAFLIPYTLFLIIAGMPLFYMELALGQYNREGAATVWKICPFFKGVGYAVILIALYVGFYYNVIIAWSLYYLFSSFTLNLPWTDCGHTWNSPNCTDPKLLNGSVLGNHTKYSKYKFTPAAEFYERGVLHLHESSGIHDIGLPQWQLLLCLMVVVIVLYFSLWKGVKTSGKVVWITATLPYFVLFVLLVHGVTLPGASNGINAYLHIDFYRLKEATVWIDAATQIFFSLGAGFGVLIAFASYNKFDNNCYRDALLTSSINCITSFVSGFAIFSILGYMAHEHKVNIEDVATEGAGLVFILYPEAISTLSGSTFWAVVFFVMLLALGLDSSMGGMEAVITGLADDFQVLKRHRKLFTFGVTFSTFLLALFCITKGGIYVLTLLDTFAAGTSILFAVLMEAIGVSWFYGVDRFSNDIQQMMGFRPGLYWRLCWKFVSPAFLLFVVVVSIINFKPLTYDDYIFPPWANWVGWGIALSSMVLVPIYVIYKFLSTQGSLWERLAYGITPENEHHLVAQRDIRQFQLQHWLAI

Cc1ccc2cccc(NC(=O)c3ccc(OC(C)C)cc3)c2n1 [Compound A12, 4-Isopropoxy-N-(2-methylquinolin-8-yl)benzamide]
expression of PPARα and its target PGC1α [1]: increased | mRNA expression of G6PAse and PEPCK [1]: significantly reduced | mRNA expression of lipogenic genes (SCD1, DGAT2, FASn, SREBP1c) [1]: significantly reduced | expression of CHOP (PERK, elF2α, CHOP): significantly reduced | phosphorylation of PERK and elF2α (PERK, elF2α, CHOP): significantly reduced | response against human nerepinephrine (NET) transporter [2]: significant responses
